# Data: US10806794B2, “Protease inhibitors having enhanced features” (priority 2008, dated 2020)
# Like-named read-outs stand apart in the source and are kept apart here.
# Key:
# human monocytes = assay: Toxicity in human monocytes in the absence of viral infection; details: human
# Protocol: (§1) Fresh human monocytes were infected with the BaL strain of HIV-1 in the presence of test compounds. After seven days in culture, HIV-1 replication was evaluated by measurement of HIV-1 viral capsid protein (p24) in the tissue culture supernatant (Table 7). […] A TI was calculated as described above using TC50 values derived from cell toxicity data in response to test compounds in the absence of viral infection.
# HIV-1BaL = assay: HIV-1 p24 levels after infection of fresh human monocyte/macrophages; format: cell-based; details: Human immunodeficiency virus 1, Monocyte, 168 h, read-out: Monocyte/HIV-1BaL EC50, seven days, p24
# Protocol: Mononuclear cells were isolated from fresh human peripheral blood cells by Ficoll-Hypaque density gradient by centrifugation at 600 g for 30 minutes. Banded peripheral blood mononuclear cells (PBMCs) were aspirated from the resulting interface and washed with phosphate buffered saline by low speed centrifugation. […] Cells were allowed to attach for 2 to 12 h at 37° C., then washed with Dulbecco's phosphate buffered saline (DPBS). Monocyte-macrophage monolayer formation was induced by incubation in growth medium (RPMI 1640 medium supplemented with 10% fetal bovine serum, 2 mmol/L L-glutamine, 100 Units/mL penicllin and 10 μg/mL streptomycin) for 7 days. Residual PBMCs were removed by washing the cell monolayers with DPBS. After washing, test compound diluted in growth medium was added to cells. Immediately following test compound addition, HIV-1 virus was added to the cells at multiplicity of infection (MOI)=0.05-0.10. After 7 days in culture, HIV-1 replication was quantified by ELISA measurement of cell-free HIV-1 viral capsid protein (p24) in the tissue culture supernatant of treated monocyte-macrophage monolayers. ELISA to quantify p24 was performed according to manufacturer's instructions (Perkin Elmer, Waltham, Mass.). The quantity of free HIV-1 p24 antigen in the sample was determined by comparing its absorbance at 490 nm to that of control standards.
# as §1
# HIV-1 HT/92/599 = assay: HIV-1 reverse transcriptase activity after infection of fresh human PBMCs; format: cell-based; details: read-out: PBMC/HIV-1HT/92/599 EC50 ± SD; seven days, reverse transcriptase activity
# Protocol: Fresh human peripheral blood mononuclear cells (PBMCs) obtained from a commercial source were purified following centrifugation using a Ficoll-Hypaque density gradient. Viable cells were induced to proliferate in the presence of PHA-P and recombinant human IL-2 for 72 hours. […] Cell supernatant containing HIV-1 viral was incubated for 90 minutes at 37° C. with a reaction mixture containing EGTA, Triton X-100, Tris (pH 7.4), DTT, MgCl2, poly rA, oligo dT, and tritiated thymidine triphosphate (TTP). Incorporation of TTP into DNA was monitored by spotting the reaction mixture onto a DEAE filter mat, followed by washes with 5% phosphate buffer, distilled water, and 70% ethanol, and subsequent drying of the mat. Radioactivity was measured using a Wallac 1450 Microbeta Trilux liquid scintillation counter using Opti-Fluor O. Test compound-associated toxicity was measured in PBMCs cultured for seven days in the absence of virus using XTT reagent. […] TI was calculated as TC50/EC50.
# [1] = Plasma protein binding by equilibrium dialysis, human plasma; format: in vitro ADME; details: human, plasma
# Protocol: (§2) In assays to estimate binding of test compounds to plasma proteins, test compound solutions (5 μM) are prepared in buffer and species-specific plasma (final DMSO concentration 0.5%). The plasma-containing solution is added to one side of the membrane of an equilibrium dialysis system, and the plasma-free is added to the other side. Dialysis was allowed to reach equilibrium by incubation for two hours at 37° C. The concentration of compound on both sides of the membrane was measured using LC-MS/MS.
# HIV-1 virions = assay: Infectivity of HIV-1 virions from treated cells on naive CEM-SS cells; format: cell-based
# Protocol: In concert with p24 analysis, cell supernatants collected from cells exposed to test compounds at 8, 16, or 24 hours post-infection were used to infect naïve CEM-SS cells. Cell viability was measured six days post-infection as a measure of virus infectivity (Table 5).
# HIV-1RF [2] = assay: Pre-exposure assay: CEM-SS cells treated before HIV-1RF infection, cell viability; format: cell-based; details: Human immunodeficiency virus 1, CEM-SS
# Protocol: (§3) The effects of pre- and post-infection PI treatment on CEM-SS toxicity were assessed. […] Cell toxicity was monitored six days after infection using XTT reagent. In the post-exposure assay, test compounds were added to cells 0, 24, 48, or 72 h after HIV-1 infection, and cell viability was measured six days post-infection.
# CEM-SS cells = assay: Post-exposure assay: toxicity in CEM-SS cells; details: human
# Protocol: as §3
# HIV-1RF [3] = assay: p24 levels after single high MOI HIV-1RF infection of CEM-SS cells, time of addition; format: cell-based
# Protocol: The cytoprotective effect against HIV of the PEG-protease inhibitor conjugates was evaluated during a single round of high multiplicity of infection (“MOI”) HIV-1 infection in CEM-SS cells. CEM-SS cells were incubated for one hour with a single high MOI dose of HIV-1RF. Cells were washed to remove free virus, then test compounds were added to cells at 0, 2, 4, 6, 8, 16, or 24 hours after HIV-1 infection. To monitor viral replication, cell supernatants were analyzed at 30 hours post-infection for levels of the HIV capsid protein p24 (FIG. 1). […] Nevirapine inhibited viral replication at 1 μM when added to cells up to four hours post-infection, and at 10 μM when added up to eight hours post-infection.
# HIV-1RF [4] = assay: Post-exposure assay: compounds added after HIV-1 infection of CEM-SS cells, cell viability; format: cell-based; details: Human immunodeficiency virus 1, CEM-SS
# Protocol: as §3
# [5] = tested on: human liver microsomal proteins; assay: Microsomal protein binding by equilibrium dialysis; format: in vitro ADME; details: human liver microsomes, 3 μM, fraction unbound
# Protocol: PEGylated protease inhibitors were evaluated for their propensity to be bound by proteins in normal human plasma or in human liver microsome preparations using equilibrium dialysis analysis. For microsomal protein binding, test compound (final concentration=3 μM) was diluted into either buffer alone or buffer containing human liver microsomes. The protein-free and microsome-containing solutions were then added to either side of an equilibrium dialysis system and allowed to reach equilibrium at 37° C. The concentration of compound on both sides of the membrane at equilibrium was quantified by LC-MS/MS, and the fraction of compound that remains unbound (Fu) is calculated.
# HIV-1RF [6] = assay: Anti-HIV cytoprotection in CEM-SS cells infected with HIV-1RF (XTT); format: cell-based; details: six days, XTT; read-out: CEM-SS/HIV-1RF EC50 ± SD
# Protocol: To evaluate whether conjugated protease inhibitors retain the ability to protect against HIV-1 infection, CEM-SS cells infected with the RF strain of HIV-1 were treated with test compounds for six days, and then cell viability was monitored using the tetrazolium dye XTT. […] A value for Therapeutic Index (TI) was calculated as TC50/EC50.
# [7] = Metabolic stability in human liver microsomes; details: human liver microsomes, 3 μM
# Protocol: The human liver microsome-mediated biotransformation of PEG-PI compounds was determined by monitoring the loss of the substrate as a function of time. […] Test compounds (3 μM final concentration) were preincubated with pooled (male and female) human liver microsomes (0.5 mg/mL final protein concentration) in buffer (0.1M phosphate buffer, pH 7.4) at 37° C. Reactions were initiated by the addition of NADPH (1 mM final concentration), and allowed to continue for 0, 5, 15, 30, and 45 minutes. […] Sample supernatants are analyzed by liquid chromatography-tandem mass spectrometry.
# CYP3A4 [8] = target: T1, CYP3A4 (Homo sapiens (Human), UniProt P08684); assay: CYP450 inhibition in human liver microsomes: CYP3A4;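 further: incubation at 37 °C started by adding 1 mM NADPH, with formation of the probe metabolite measured via LC-MS/MS or fluorescent detection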
# Caco-2 cells = assay: Bi-directional permeability in Caco-2 monolayers; details: Caco-2 monolayers, apical to basolateral
# Protocol: Absorption properties of various compounds were measured using bi-directional permeability assays in Caco-2 cells. […] The efflux ratio is calculated as the ratio of the Papp(B→A)/Papp(A→B).
# CYP2D6 = CYP2D6 (Homo sapiens (Human), UniProt P10635); assay: Metabolic stability in CYP2D6-expressing Bactosomes; format: in vitro ADME; details: 5 μM
# Protocol: (§4) Compounds were evaluated for their propensity to act as substrates of individual human cytochrome P450 enzymes using a bacterial membrane preparation co-expressing human NADPH-cytochrome P450 reductase with either human CYP3A4 or CYP2D6 (Bactosomes™ Cypex, Ltd., Dundee, UK). In vitro metabolism studies using Bactosomes™ expressing individual human CYP isoforms monitor the extent to which a test compound is metabolized by a single CYP450 enzyme and allow identification of the CYP isoforms that may be responsible for the metabolism of a test compound. Timecourse analyses of test molecules (5 μM) with CYP2D6- or CYP3A4-expressing Bactosomes™ (100 pmol/mL) are performed in buffer (0.1 M phosphate, pH 7.4) in a final reaction volume of 25 μL. […] Reactions are terminated by the addition of methanol (50 μL) containing internal standard at 0, 5, 15, 30, and 45 minutes.
# human plasma proteins = assay: Plasma protein binding by equilibrium dialysis, human plasma; format: in vitro ADME; details: human plasma, 5 μM, fraction unbound
# Protocol: as §2
# human hepatocytes = assay: Metabolic stability in cryopreserved human hepatocytes; details: human hepatocytes
# Protocol: Metabolism of PI conjugates was investigated by monitoring the levels of unmetabolized parent compound following incubation with cryopreserved human or monkey hepatocytes. The use of whole hepatocytes rather than microsomes requires that the drugs cross the cell membrane to interact with intracellularly-localized metabolic enzymes, and thus provides the most relevant in vitro system for understanding overall metabolic stability of these compounds.
# Test compounds (0.1 μM or 3 μM, as indicated) are incubated with cryopreserved human hepatocytes at a cell density of 0.5×10^6 viable cells/mL. […] Duplicate samples (50 μL) are removed from the incubation mixture at various timepoints up to four hours (for 0.1 μM test compound concentration), or one or two hours (for 3 μM test compound concentration), and the reaction is quenched by the addition of methanol containing internal standard (100 μL). The samples are centrifuged (2500 rpm at 4° C. for 20 min), and the supernatants at each time point pooled for cassette analysis by LC-MS/MS.
# CYP3A4 [9] = target: T1, CYP3A4; assay: Metabolic stability in CYP3A4-expressing Bactosomes; format: in vitro ADME; details: 5 μM
# Protocol: as §4
# T1 sequence (P08684 whole entry): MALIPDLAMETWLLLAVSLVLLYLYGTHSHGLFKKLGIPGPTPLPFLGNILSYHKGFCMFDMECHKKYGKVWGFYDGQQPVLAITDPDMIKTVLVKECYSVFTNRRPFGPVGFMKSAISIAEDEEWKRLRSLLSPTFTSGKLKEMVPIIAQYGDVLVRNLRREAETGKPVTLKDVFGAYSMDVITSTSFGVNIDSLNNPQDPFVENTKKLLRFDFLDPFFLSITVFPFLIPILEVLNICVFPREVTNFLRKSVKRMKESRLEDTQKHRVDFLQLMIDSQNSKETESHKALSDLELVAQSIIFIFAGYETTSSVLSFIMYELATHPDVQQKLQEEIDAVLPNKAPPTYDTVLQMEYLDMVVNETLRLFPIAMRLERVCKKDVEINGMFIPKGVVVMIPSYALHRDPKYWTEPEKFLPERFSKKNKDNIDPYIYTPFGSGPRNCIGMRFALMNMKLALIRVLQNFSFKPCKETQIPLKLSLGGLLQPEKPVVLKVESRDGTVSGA
# Chain of CYP2D6 (P10635 whole entry, canonical isoform): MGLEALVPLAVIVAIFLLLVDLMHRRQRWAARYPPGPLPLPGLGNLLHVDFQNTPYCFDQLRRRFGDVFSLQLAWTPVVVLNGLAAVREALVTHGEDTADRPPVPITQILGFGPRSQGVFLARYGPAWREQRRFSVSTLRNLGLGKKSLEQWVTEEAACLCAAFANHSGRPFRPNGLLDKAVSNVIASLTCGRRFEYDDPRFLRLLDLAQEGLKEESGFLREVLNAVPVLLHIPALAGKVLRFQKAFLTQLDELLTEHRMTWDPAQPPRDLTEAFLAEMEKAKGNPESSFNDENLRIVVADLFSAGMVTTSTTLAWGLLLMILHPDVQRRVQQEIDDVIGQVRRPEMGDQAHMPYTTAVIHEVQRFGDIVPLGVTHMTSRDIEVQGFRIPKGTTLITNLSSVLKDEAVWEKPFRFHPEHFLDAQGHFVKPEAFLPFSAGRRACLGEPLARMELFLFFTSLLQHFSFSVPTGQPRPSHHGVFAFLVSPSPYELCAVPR
smiles,measurement,setting,value
CC(C)(C)NC(=O)[C@@H]1C[C@@H]2CCCC[C@@H]2CN1C[C@@H](O)[C@H](Cc1ccccc1)NC(=O)[C@H](CC(N)=O)NC(=O)c1ccc2ccccc2n1 [Saquinavir],TC50,human monocytes,>1.0 µM
same,EC50,HIV-1BaL,0.04 µM
same,EC50,HIV-1 HT/92/599,0.009 µM
same,"fraction unbound at 2 h, 5 μM",[1],0.0353 ± 0.00151
same,Percent Infectivity of HIV-1 Virions in comparison to virus-alone control,"HIV-1 virions; 0.01 μM, added 8 h post-infection",100.0%
same,Percent Infectivity of HIV-1 Virions in comparison to virus-alone control,"HIV-1 virions; 0.01 μM, added 16 h post-infection",117.0%
same,Percent Infectivity of HIV-1 Virions in comparison to virus-alone control,"HIV-1 virions; 0.01 μM, added 24 h post-infection",404.8%
same,Percent Infectivity of HIV-1 Virions in comparison to virus-alone control,"HIV-1 virions; 0.1 μM, added 8 h post-infection",5.6%
same,Percent Infectivity of HIV-1 Virions in comparison to virus-alone control,"HIV-1 virions; 0.1 μM, added 16 h post-infection",10.0%
same,Percent Infectivity of HIV-1 Virions in comparison to virus-alone control,"HIV-1 virions; 0.1 μM, added 24 h post-infection",128.0%
same,reduction of virion infectivity vs virus-only control,HIV-1 virions; 1 μM at 24 hours post-infection,~90%
same,Percent Infectivity of HIV-1 Virions in comparison to virus-alone control,"HIV-1 virions; 1 μM, added 8 h post-infection",0.1%
same,Percent Infectivity of HIV-1 Virions in comparison to virus-alone control,"HIV-1 virions; 1 μM, added 16 h post-infection",7.8%
same,Percent Infectivity of HIV-1 Virions in comparison to virus-alone control,"HIV-1 virions; 1 μM, added 24 h post-infection",12.8%
same,reduction of virion infectivity vs virus-only control,HIV-1 virions; 0.1 or 1 μM at 8 and 16 hours post-infection,at least 90%
same,EC50,HIV-1RF [2]; 2 h,0.02 µM
same,EC50,HIV-1RF [2]; 8 h,0.05 µM
same,EC50,HIV-1RF [2]; 24 h,0.04 µM
same,TC50,CEM-SS cells; 3 days,>1.0 µM
same,TC50,CEM-SS cells; 4 days,>1.0 µM
same,TC50,CEM-SS cells; 5 days,>1.0 µM
same,TC50,CEM-SS cells; 6 days,>1.0 µM
same,time of addition up to which antiviral activity (reduced p24) was seen,HIV-1RF [3]; 0.1 μM,up to 16 hours post-infection
same,time of addition up to which antiviral activity (reduced p24) was seen,HIV-1RF [3]; 1 μM,up to 24 hours post-infection
same,EC50,HIV-1RF [4]; 0 h,< 0.003 µM
same,EC50,HIV-1RF [4]; 24 h,0.004 µM
same,EC50,HIV-1RF [4]; 48 h,0.005 µM
same,EC50,HIV-1RF [4]; 72 h,0.01 µM
COCCOCCOCCNc1ccc(S(=O)(=O)N(CC(C)C)CC(O)[C@H](Cc2ccccc2)NC(=O)O[C@H]2CO[C@H]3OCC[C@H]32)cc1 (some centres unmarked) [mPEG3-N-Darunavir],Microsomal Protein Binding Fu ± SD,[5],0.96 ± 0.0407
same,EC50,HIV-1RF [6],< 0.0007 µM
same,CLint ± SEM,[7],385 ± 0.718 μL/min/mg protein
same,t1/2,[7],3.60 min
same,IC50,"CYP3A4 [8]; read-out: CYP3A4 IC50 Midazolam, probe substrate midazolam",1.2 µM
same,IC50,"CYP3A4 [8]; read-out: CYP3A4 IC50 Testosterone, probe substrate testosterone",3.1 µM
same,"A→B, ×10^−6",Caco-2 cells,2.52 cm/s
same,2D6 t1/2 ± SEM,CYP2D6,68.4 ± 18.9 min
same,Plasma Protein Binding Fu ± SD,human plasma proteins,0.236 ± 0.0292
same,CLint ± SEM,"human hepatocytes; 0.1 uM, up to four hours",48.0 ± 4.75 μL/min/10^6 cells
same,t1/2,"human hepatocytes; 0.1 uM, up to four hours",28.9 min
same,CLint ± SEM,"human hepatocytes; 3 uM, incubated up to one hour",18.2 ± 1.47 μL/min/10^6 cells
same,3A4 t1/2 ± SEM,CYP3A4 [9],66.6 ± 4.88 min
